One may read the inhibition as the share of the control response that was lost under treatment. A high value points to a response far below the control. A word on the IC50: it is the concentration that inhibits the measured activity by half. Low values mean inhibition by little substance, high ones a need for much substance.

Holding throughout (type): biochemical
The target in test [1] is T1, USP36 (Homo sapiens, UniProt Q9P275).
T1 construct: recombinant
T1 sequence (Q9P275 1-1123): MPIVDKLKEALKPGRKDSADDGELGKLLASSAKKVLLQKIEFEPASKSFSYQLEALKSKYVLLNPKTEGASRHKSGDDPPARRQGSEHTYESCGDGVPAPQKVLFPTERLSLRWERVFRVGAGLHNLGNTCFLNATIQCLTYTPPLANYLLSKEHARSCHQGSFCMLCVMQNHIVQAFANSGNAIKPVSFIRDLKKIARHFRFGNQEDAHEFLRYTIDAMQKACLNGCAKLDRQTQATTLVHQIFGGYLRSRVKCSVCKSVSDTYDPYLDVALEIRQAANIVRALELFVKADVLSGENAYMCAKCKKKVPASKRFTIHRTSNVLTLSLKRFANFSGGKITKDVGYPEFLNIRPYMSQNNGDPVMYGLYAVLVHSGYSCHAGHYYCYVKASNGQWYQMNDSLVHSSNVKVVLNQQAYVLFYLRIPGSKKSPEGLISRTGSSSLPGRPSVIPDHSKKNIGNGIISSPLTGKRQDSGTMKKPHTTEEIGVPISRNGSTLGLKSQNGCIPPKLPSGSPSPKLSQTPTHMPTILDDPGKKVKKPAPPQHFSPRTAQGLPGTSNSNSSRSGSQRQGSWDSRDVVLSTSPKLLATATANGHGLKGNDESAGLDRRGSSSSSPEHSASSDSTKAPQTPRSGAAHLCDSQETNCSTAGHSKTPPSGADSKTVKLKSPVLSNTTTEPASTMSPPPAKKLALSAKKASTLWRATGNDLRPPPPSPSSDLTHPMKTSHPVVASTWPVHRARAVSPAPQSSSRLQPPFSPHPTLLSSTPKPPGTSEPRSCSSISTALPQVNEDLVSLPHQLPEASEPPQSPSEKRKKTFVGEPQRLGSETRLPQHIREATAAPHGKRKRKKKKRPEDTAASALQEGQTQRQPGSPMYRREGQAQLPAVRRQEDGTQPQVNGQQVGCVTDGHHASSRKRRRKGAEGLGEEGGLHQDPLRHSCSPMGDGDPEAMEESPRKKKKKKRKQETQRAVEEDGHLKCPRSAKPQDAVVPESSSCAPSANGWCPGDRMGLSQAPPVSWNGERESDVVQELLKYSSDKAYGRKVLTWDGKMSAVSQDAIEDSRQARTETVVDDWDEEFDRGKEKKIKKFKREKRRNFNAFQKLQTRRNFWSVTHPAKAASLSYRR
Briefly: MALDI-TOF DUB activity assay with diubiquitin, single dose […].

The target of test [2] is T2, USP16 (Homo sapiens, UniProt Q9Y5T5).
T2 construct: recombinant
T2 sequence (Q9Y5T5 whole entry): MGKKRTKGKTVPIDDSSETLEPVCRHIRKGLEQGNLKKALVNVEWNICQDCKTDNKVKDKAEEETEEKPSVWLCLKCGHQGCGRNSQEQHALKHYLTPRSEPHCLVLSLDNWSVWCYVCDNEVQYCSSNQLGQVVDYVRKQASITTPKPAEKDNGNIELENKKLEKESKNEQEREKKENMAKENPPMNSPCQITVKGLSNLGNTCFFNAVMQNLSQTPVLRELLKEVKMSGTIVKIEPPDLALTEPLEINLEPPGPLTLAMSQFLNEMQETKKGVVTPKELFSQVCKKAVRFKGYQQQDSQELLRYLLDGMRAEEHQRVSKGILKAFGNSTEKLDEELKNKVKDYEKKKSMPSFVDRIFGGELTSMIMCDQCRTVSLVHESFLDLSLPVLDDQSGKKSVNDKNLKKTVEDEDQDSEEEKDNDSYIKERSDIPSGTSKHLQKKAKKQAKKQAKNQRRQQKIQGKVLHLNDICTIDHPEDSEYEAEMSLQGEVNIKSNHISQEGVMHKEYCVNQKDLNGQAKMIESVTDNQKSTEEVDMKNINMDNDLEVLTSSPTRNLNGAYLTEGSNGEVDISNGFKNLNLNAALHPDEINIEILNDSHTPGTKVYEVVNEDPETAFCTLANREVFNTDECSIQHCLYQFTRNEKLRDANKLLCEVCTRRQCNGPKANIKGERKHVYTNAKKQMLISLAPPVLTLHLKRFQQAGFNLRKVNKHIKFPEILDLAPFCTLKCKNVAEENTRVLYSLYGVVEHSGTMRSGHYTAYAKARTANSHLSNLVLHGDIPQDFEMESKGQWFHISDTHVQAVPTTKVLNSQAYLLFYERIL
The description is as above.

Test [3] concerns the target T3, USP27X (Homo sapiens, UniProt A6NNY8).
T3 construct: recombinant (recUSP27)
T3 sequence (A6NNY8 1-438): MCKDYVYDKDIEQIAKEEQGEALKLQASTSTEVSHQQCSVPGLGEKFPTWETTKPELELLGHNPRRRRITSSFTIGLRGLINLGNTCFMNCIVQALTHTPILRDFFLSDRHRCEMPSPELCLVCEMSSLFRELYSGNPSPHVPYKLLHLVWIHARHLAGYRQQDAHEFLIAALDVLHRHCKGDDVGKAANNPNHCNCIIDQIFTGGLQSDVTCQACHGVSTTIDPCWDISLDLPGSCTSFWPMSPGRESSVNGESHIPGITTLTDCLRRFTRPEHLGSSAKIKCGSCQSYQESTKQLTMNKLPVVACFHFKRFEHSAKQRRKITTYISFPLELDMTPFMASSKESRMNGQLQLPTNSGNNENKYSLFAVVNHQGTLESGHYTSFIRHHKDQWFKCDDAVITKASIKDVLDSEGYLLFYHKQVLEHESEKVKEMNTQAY
The test is described as above.

Test [4] concerns the target T4, USP21 (Homo sapiens, UniProt Q9UK80).
T4 construct: recombinant (recUSP21)
T4 sequence (Q9UK80 1-565): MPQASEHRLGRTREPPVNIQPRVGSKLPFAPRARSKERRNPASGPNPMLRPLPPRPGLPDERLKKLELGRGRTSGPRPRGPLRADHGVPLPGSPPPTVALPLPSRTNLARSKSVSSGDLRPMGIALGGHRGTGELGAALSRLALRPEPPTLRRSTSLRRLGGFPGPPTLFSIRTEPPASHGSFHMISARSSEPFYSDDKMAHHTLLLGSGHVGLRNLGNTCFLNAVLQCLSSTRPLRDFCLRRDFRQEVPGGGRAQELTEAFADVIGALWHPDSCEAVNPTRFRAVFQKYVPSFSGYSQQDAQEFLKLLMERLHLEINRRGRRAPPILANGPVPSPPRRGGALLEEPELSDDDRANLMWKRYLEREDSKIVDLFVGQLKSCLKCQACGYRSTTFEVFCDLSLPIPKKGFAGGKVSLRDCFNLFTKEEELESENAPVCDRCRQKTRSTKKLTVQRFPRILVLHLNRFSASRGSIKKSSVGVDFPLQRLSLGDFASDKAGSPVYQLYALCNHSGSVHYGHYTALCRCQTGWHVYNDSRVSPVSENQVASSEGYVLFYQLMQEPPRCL
Briefly: MALDI-TOF DUB activity assay with diubiquitin; […] inhibition at […].

Take `C=C(C)[C@@H]1CC[C@]2(C(=O)O)CC[C@]3(C)[C@H](CC[C@@H]4[C@@]5(C)CC[C@H](O)C(C)(C)[C@@H]5CC[C@]43C)[C@@H]12` [BA, betulinic acid]: the inhibition at 10 µM was 40% in test [1], 40% in test [2] and 60% in test [3]. The same compound displayed an IC50 in test [4] of 6.1 µM.

(Values after PMC6120934, “Inhibiting Multiple Deubiquitinases to Reduce Androgen Receptor Expression in Prostate Cancer Cells” (Scientific Reports, 2018).)
